Source: patent US11124510B2, “Alkyl chain modified imidazoquinoline TLR7/8 agonist compounds and uses thereof” (Dynavax Technologies Corporation, priority 2017, dated 2021)

Legend:
[1] = molecular target: TLR7 (Homo sapiens (Human), UniProt Q9NYK1); assay: TLR7 agonist bioactivity: induction of IFNα protein in pDC-enriched PBMC cultures (ELISA, 24 h); format: cell-based; conditions: for EC50: IFNα induction, pDC-enriched human PBMC, 24 hours; for fold loss of TLR7 agonist potency compared to Compound No. 63-00 (IMDQ): less potent than IMDQ; for TLR7 (% of Compound No. 63-00 EC50 Value): EC50 expressed as percentage of EC50 of Compound No. 63-00
Procedure: Plasmacytoid dendritic cell (pDC)—enriched peripheral blood mononuclear cells (PBMCs) were prepared from the blood of a series of human donors (3-5 donors/experiment). PBMCs were isolated using Ficoll-Paque Premium® (GE Healthcare, Chicago Ill.) using methods well known to those in the art. pDCs were magnetically isolated from the total recovered PBMC population using CD304 (BDCA-4/Neuropilin-1) microbeads (Miltenyi Biotec, San Diego Calif.), according to the manufacturer's instructions. Isolated pDCs were then added back to between 1 and 2×10^8 of the corresponding donor's PBMCs for relative enrichment of this cell type. […] Culture supernatants were collected and interferon-alpha (IFNα) protein levels were measured by ELISA (MabTech, Cincinnati Ohio), according to the manufacturer's instructions.

[2] = molecular target: TLR8 (Homo sapiens (Human), UniProt Q9NR97); assay: TLR8 agonist bioactivity: induction of TNFα protein in monocyte cultures (ELISA, 24 h); format: cell-based; conditions: for EC50: TNFα induction, human monocytes, 24 hours; for fold loss of TLR8 agonist potency compared to Compound No. 63-00 (IMDQ): less potent than IMDQ; for TLR8 (% of Compound No. 63-00 EC50 Value): EC50 expressed as percentage of EC50 of Compound No. 63-00; for fold increase of TLR8 agonist potency compared to Compound No. 63-00 (IMDQ): more potent than IMDQ
Procedure: Monocytes were magnetically isolated from PBMCs, prepared as described above, following labeling with CD14 microbeads (Miltenyi Biotec, San Diego Calif.), according to the manufacturer's instructions. […] Culture supernatants were collected and tumor necrosis factor alpha (TNFα) protein levels were measured by ELISA (MabTech, Cincinnati Ohio), according to the manufacturer's instructions.

Sequence of TLR8 (Q9NR97 27-1041): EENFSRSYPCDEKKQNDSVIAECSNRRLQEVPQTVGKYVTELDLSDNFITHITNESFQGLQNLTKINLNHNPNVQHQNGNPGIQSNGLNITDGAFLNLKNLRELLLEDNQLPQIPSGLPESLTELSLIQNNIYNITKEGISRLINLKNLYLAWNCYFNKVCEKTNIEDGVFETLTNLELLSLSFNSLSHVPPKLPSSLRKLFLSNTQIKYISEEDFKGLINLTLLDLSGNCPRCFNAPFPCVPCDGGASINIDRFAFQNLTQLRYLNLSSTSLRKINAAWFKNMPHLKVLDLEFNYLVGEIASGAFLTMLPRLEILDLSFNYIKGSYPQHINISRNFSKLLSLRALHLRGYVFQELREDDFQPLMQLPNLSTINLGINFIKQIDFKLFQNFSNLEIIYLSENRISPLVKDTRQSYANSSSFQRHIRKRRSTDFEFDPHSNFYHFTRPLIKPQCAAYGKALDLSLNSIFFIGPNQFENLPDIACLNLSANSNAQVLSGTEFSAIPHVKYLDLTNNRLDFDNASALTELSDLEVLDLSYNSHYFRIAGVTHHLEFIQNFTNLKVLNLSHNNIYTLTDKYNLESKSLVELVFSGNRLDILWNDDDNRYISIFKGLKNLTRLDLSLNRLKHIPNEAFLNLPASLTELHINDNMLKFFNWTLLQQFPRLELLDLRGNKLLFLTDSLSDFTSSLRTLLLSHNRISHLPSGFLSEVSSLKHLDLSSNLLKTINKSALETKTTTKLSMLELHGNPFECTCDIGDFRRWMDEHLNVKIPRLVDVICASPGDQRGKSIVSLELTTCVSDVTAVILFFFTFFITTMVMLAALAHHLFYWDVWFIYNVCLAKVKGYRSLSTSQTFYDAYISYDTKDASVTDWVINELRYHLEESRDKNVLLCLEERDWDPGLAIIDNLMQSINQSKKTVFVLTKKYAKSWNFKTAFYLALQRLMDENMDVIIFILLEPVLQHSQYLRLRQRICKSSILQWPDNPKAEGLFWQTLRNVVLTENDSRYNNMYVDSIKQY
Sequence of TLR7 (Q9NYK1 27-1049): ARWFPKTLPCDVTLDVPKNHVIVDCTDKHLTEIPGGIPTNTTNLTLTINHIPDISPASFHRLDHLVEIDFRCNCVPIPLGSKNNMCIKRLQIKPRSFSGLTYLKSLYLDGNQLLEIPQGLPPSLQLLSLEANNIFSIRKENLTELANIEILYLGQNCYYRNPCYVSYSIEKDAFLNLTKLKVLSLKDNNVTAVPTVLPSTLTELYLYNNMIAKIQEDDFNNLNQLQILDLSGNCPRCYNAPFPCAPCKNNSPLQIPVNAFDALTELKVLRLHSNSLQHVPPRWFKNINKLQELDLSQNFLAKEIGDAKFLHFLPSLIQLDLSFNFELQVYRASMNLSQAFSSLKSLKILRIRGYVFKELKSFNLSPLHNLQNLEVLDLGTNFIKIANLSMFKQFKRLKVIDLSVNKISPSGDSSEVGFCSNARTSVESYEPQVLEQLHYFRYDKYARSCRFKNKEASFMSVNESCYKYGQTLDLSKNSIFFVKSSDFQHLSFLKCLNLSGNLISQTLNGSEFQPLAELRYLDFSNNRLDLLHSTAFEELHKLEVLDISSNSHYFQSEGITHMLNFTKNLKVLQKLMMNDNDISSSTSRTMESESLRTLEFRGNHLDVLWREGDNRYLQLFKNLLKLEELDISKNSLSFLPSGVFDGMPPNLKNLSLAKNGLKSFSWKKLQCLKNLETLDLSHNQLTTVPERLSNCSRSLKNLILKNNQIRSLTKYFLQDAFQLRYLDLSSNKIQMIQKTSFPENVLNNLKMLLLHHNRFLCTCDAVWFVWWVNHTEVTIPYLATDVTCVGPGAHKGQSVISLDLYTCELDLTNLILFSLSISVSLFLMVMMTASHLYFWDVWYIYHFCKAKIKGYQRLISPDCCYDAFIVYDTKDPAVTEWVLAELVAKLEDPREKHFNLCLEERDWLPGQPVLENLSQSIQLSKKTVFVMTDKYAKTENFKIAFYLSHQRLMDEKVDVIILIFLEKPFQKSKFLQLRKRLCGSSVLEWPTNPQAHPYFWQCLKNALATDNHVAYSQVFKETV

Compound	EC50 [1]	EC50 [2]	fold loss of TLR8 agonist potency compared to Compound No. 63-00 (IMDQ) [2]	fold loss of TLR7 agonist potency compared to Compound No. 63-00 (IMDQ) [1]	TLR7 (% of Compound No. 63-00 EC50 Value) [1]	TLR8 (% of Compound No. 63-00 EC50 Value) [2]	fold increase of TLR8 agonist potency compared to Compound No. 63-00 (IMDQ) [2]
CCCCCCCCC(=O)NCc1ccc(Cn2c(CCCC)nc3c(N)nc4ccccc4c32)cc1 [Compound No. 63-05, N-(4-((4-amino-2-butyl-1H-imidazo[4,5-c]quinolin-1-yl)methyl)benzyl)nonanamide]	3 nM	2170 nM	10-26 fold				
CCCCCCCCCC(=O)NCc1ccc(Cn2c(CCCC)nc3c(N)nc4ccccc4c32)cc1 [Compound No. 63-06, N-(4-((4-amino-2-butyl-1H-imidazo[4,5-c]quinolin-1-yl)methyl)benzyl)decanamide]	2 nM	2750 nM	10-26 fold				
CCCCCCCCCCC(=O)NCc1ccc(Cn2c(CCCC)nc3c(N)nc4ccccc4c32)cc1 [Compound No. 63-07, N-(4-((4-amino-2-butyl-1H-imidazo[4,5-c]quinolin-1-yl)methyl)benzyl)undecanamide]	1 nM	2640 nM	10-26 fold				
CCCCCCCCCCCC(=O)NCc1ccc(Cn2c(CCCC)nc3c(N)nc4ccccc4c32)cc1 [Compound No. 63-08, N-(4-((4-amino-2-butyl-1H-imidazo[4,5-c]quinolin-1-yl)methyl)benzyl)dodecanamide]	3 nM	1270 nM	did not lose as much agonist activity				
CCCCCCCCCCCCC(=O)NCc1ccc(Cn2c(CCCC)nc3c(N)nc4ccccc4c32)cc1 [Compound No. 63-09, N-(4-((4-amino-2-butyl-1H-imidazo[4,5-c]quinolin-1-yl)methyl)benzyl)tridecanamide]	2 nM	970 nM	did not lose as much agonist activity				
CCCCCCCNCc1ccc(Cn2c(CCCC)nc3c(N)nc4ccccc4c32)cc1 [Compound No. 63-19, 2-butyl-1-(4-((heptylamino)methyl)benzyl)-1H-imidazo[4,5-c]quinolin-4-amine]	24 nM	752 nM					
CCCCCCCCNCc1ccc(Cn2c(CCCC)nc3c(N)nc4ccccc4c32)cc1 [Compound No. 63-20, 2-butyl-1-(4-((octylamino)methyl)benzyl)-1H-imidazo[4,5-c]quinolin-4-amine]	51 nM	1220 nM					
CCCCCCCCCNCc1ccc(Cn2c(CCCC)nc3c(N)nc4ccccc4c32)cc1 [Compound No. 63-21, 2-butyl-1-(4-((nonylamino)methyl)benzyl)-1H-imidazo[4,5-c]quinolin-4-amine]	68 nM	947 nM					
CCCCCCCCCCNCc1ccc(Cn2c(CCCC)nc3c(N)nc4ccccc4c32)cc1 [Compound No. 63-22, 2-butyl-1-(4-((decylamino)methyl)benzyl)-1H-imidazo[4,5-c]quinolin-4-amine]	62 nM	821 nM					
CCCCCCCCCCCCNCc1ccc(Cn2c(CCCC)nc3c(N)nc4ccccc4c32)cc1 [Compound No. 63-24, 2-butyl-1-(4-((dodecylamino)methyl)benzyl)-1H-imidazo[4,5-c]quinolin-4-amine]	32 nM	1040 nM					
CCCCCCCCCCCCCCCCCCNCc1ccc(Cn2c(CCCC)nc3c(N)nc4ccccc4c32)cc1 [Compound No. 63-29, 2-butyl-1-(4-((octadecylamino)methyl)benzyl)-1H-imidazo[4,5-c]quinolin-4-amine]	19 nM	2770 nM	over 12 fold	19 fold			
CCCCCCCCCCCCCCCC(=O)NCc1ccc(Cn2c(CCCC)nc3c(N)nc4ccccc4c32)cc1 [Compound No. 63-31, N-(4-((4-amino-2-butyl-1H-imidazo[4,5-c]quinolin-1-yl)methyl)benzyl)palmitamide, reference compound]	3 nM	2150 nM	10-26 fold				
CCCCCCCCCCCCCCCCNCc1ccc(Cn2c(CCCC)nc3c(N)nc4ccccc4c32)cc1 [Compound No. 63-32, 2-butyl-1-(4-((hexadecylamino)methyl)benzyl)-1H-imidazo[4,5-c]quinolin-4-amine, reference compound]	157 nM	3100 nM					
CCCCc1nc2c(N)nc3ccccc3c2n1Cc1ccc(CNC(=O)CC2CC2)cc1 [Compound No. 63-34, N-(4-((4-amino-2-butyl-1H-imidazo[4,5-c]quinolin-1-yl)methyl)benzyl)-2-cyclopropylacetamide]	8 nM	1490 nM	7 fold	8 fold			
CCCCc1nc2c(N)nc3ccccc3c2n1Cc1ccc(CNCCC2CCC2)cc1 [Compound No. 63-35, 2-butyl-1-(4-(((2-cyclobutylethyl)amino)methyl)benzyl)-1H-imidazo[4,5-c]quinolin-4-amine]	12 nM	70 nM			715%	53%	
CCCCc1nc2c(N)nc3ccccc3c2n1Cc1ccc(CNCCC2CCCC2)cc1 [Compound No. 63-36, 2-butyl-1-(4-(((2-cyclopentylethyl)amino)methyl)benzyl)-1H-imidazo[4,5-c]quinolin-4-amine]	11 nM	117 nM		10.9 fold	1,085%	72%	
CCCCc1nc2c(N)nc3ccccc3c2n1Cc1ccc(CNCC2CC2)cc1 [Compound No. 63-38, 2-butyl-1-(4-(((cyclopropylmethyl)amino)methyl)benzyl)-1H-imidazo[4,5-c]quinolin-4-amine]					345%	37%	
CCCCc1nc2c(N)nc3ccccc3c2n1Cc1ccc(CNCC2CC2C)cc1 (centres unmarked) [Compound No. 63-39, 2-butyl-1-(4-((((2-methylcyclopropyl)methyl)amino)methyl)benzyl)-1H-imidazo[4,5-c]quinoline-4-amine]					220%	48%	
CCCCc1nc2c(N)nc3ccccc3c2n1Cc1ccc(CNCC2CC2(C)C)cc1 (centres unmarked) [Compound No. 63-40, 2-butyl-1-(4-((((2,2-dimethylcyclopropyl)methyl)amino)methyl)benzyl)-1H-imidazo[4,5-c]quinolin-4-amine]					215%	51%	
CCCCc1nc2c(N)nc3ccccc3c2n1Cc1ccc(CNCC(C)(C)C2CC2)cc1 [Compound No. 63-41, 2-butyl-1-(4-(((2-cyclopropyl-2-methylpropyl)amino)methyl)benzyl)-1H-imidazo[4,5-c]quinoline-4-amine]					360%	43%	
CCCCc1nc2c(N)nc3ccccc3c2n1Cc1ccc(CNCCC2(C)CC2)cc1 [Compound No. 63-42, 2-butyl-1-(4-(((2-(1-methylcyclopropyl)ethyl)amino)methyl)benzyl)-1H-imidazo[4,5-c]quinolin-4-amine]					445%	85%	slightly improved to slightly inferior
CCCCc1nc2c(N)nc3ccccc3c2n1Cc1ccc(CNCCCC2CC2)cc1 [Compound No. 63-43, 2-butyl-1-(4-(((3-cyclopropylpropyl)amino)methyl)benzyl)-1H-imidazo[4,5-c]quinolin-4-amine]					440%	77%	
CCCCc1nc2c(N)nc3ccccc3c2n1Cc1ccc(CNCC2CCC2)cc1 [Compound No. 63-44, 2-butyl-1-(4-(((cyclobutylmethyl)amino)methyl)benzyl)-1H-imidazo[4,5-c]quinolin-4-amine]				1.2 fold	120%	17%	5.9 fold
CCCCc1nc2c(N)nc3ccccc3c2n1Cc1ccc(CNCC2(C)CCC2)cc1 [Compound No. 63-45, 2-butyl-1-(4-((((1-methylcyclobutyl)methyl)amino)methyl)benzyl)-1H-imidazo[4,5-c]quinoline-4-amine]				1.9 fold	190%	13%	7.7 fold
CCCCc1nc2c(N)nc3ccccc3c2n1Cc1ccc(CNCC2CC(C)C2)cc1 (centres unmarked) [Compound No. 63-46, 2-butyl-1-(4-((((3-methylcyclobutyl)methyl)amino)methyl)benzyl)-1H-imidazo[4,5-c]quinolin-4-amine]					400%	39%	
CCCCc1nc2c(N)nc3ccccc3c2n1Cc1ccc(CNCC(C)(C)C2CCC2)cc1 [Compound No. 63-47, 2-butyl-1-(4-(((2-cyclobutyl-2-methylpropyl)amino)methyl)benzyl)-1H-imidazo[4,5-c]quinolin-4-amine]				9.0 fold	900%	108%	slightly improved to slightly inferior
